Test results: US20120283313A1, “INHIBITION AND TREATMENT OF PROSTATE CANCER METASTASIS” (NORTHWESTERN UNIVERSITY, priority 2007, published 2012)
Entries after “also recorded” stand apart in the source; their conditions may differ. Read-outs that look alike come from different tables or passages of the source.

Legend:
PC3M cells = assay: quantitative image analysis of nuclear morphology, mouse tissue; assay type: in vivo, mice; settings: 250 mg genistein vs controls
From the text: Change in cell morphology is a generally recognized measure of change in cell adhesion. Compounds which increase cell adhesion of prostate cancer cells in vivo may inhibit prostate cancer metastasis. […] Quantitative image analysis according to established methods was used to measure in vivo changes in nuclear morphology in the prostate. (Bartels, et al., Prostate, 48:144-55, (2001); Boone, et al., Urology, 57:129-31 (2001); Bartels, et al., Anal. Quant. Cytol. Histol. 20:397-406 (1998); Bartels et al., Anal. Quant. Cytol. Histol. 20:389-96; Veltri, et al., J. Cell Biochem. Suppl., 151-57 (2000); herein incorporated by reference in their entireties).
Mouse: From the mouse experiment of Example 5, primary (prostate gland) and metastatic (local lymph nodes) tissue was Feulgen-stained, and the nuclear morphology of PC3M cells was quantitated on a ChromaVision ACIS® II Image Analysis System. […] Specifically, for lymph node: cell area increased by 19.5±2.1%, cell length by 9.1±1.1%, and cell width by 9.5±1.1% (p:S 0.01 for all). For primary tumor: cell length increased by 3.0±1.1% (p:S 0.05).

[1] = tested on: prostate epithelial cells; assay: Phase 2 trial: nuclear morphology of prostate epithelial cells; assay type: in vivo, human; settings: men, genistein treated vs controls
From the text: Though morphologically “normal,” these cells are present within organs with PCa, have pre-cancer molecular changes, and represent an appropriate target cell type for therapy that inhibits a process associated with PCa progression, in this case, development of the metastatic phenotype. […] These findings are consistent with its effects in vitro and in mice.

[2] = tested on: human prostate cancer (PCa) cell lines; assay: cell invasion assay of PCa cell lines with genistein / siMEK4; assay type: cell-based
From the text: MEK expression was examined in six human prostate cancer (PCa) cell lines: PC3 and PC3-M metastatic PCa cells, 1532CPTX and 1542 CPTX immortalized localized PCa cells, and 1532 NPTX and 1542 NPTX immortalized normal epithelial cells. The last four cell lines are primary cells, are HPV transformed, and thus represent early stages of prostate carcinogenesis. They provide representative members of the metastatic phenotype, as well as members of early state phenotypes. […] All six cell lines also secrete as well as respond to TGFβ, a regulator of cell motility that plays a role in PCa cell invasiveness.
Assays were conducted using methods as described in Craft et al. (2008, Mol. Pharmocol., 73(1):235-242; herein incorporated by reference in its entirety).

[3] = men, 2 mg genistein/kg/day for 1 month
[4] = mice, free about a tenth of total
MMP-2 = assay: Phase 2 trial: MMP-2 transcript levels by LCM and qRT/PCR; assay type: in vivo, human; settings: normal prostate epithelial cells, 2 mg genistein/kg/day, normalized to GAPDH
[5] = men, 2 to 8 mg genistein/kg; cited from earlier work
p38 MAP kinase = assay: Western blot of primary tumor tissue for p38 MAP kinase; assay type: in vivo, mice; settings: fresh frozen primary tumor tissue
[6] = tested on: prostate epithelial cells; assay: Phase 2 trial: LCM and 12K gene array of prostate epithelial cells; assay type: in vivo, human
From the text: In particular, methodology was employed wherein prostate epithelial cells are selectively removed from human prostate tissue by laser capture microdissection (LCM), the resultant RNA linear amplified, and custom manufactured 12K gene arrays are probed. Ding, et al., Id.

human PC3-M PCa cells = assay: orthotopic PC3-M implantation metastasis model in athymic mice
MEK4 = assay: TGFβ stimulated phosphorylation of MEK4 in vivo; assay type: cell-based
Experimental: Phosphorylation by MEK4 (FIG. 4A) and phosphorylation of MEK4 (FIG. 7) was assayed. The Upstate Biotechnology MEK4 assay system was used to measure inhibition of MEK4 activity. Phosphorylation of MEK4 in vivo was assayed using standard techniques.

For `O=c1c(-c2ccc(O)cc2)coc2cc(O)cc(O)c12` [genistein], the “increase in cell area” value (PC3M cells; lymph node) was 19.5±2.1%, the “increase in cell length” value (PC3M cells; lymph node) was 9.1±1.1% and the “increase in cell width” value (PC3M cells; lymph node) was 9.5±1.1%. The “increase in cell length” value (PC3M cells; primary tumor) was 3.0±1.1%, the “increase in length (nuclear morphology)” value [1] was 1.5±0.7% and the “increase in width (nuclear morphology)” value [1] was 2.7±0.7%. The “increase in area (nuclear morphology)” value ([1]; only a trend) was 2.0±1.0%, the “effect of genistein on invasiveness when MEK4 expression suppressed by siMEK4” value ([2]; PCa cells, genistein plus siMEK4) was “the effect of genistein was abrogated” and the “invasion of PCa cells” value ([2]; early and late stage PCa cell lines, presence of genistein) was “inhibits invasion of both early and late stage PCa cells”. For the same compound, the “trough concentration of free genistein, mean±SEM” value [3] was 26.6 ± 6.6 nM, the estimated free concentration ([4]; 100 mg cohort) was 29 nM and the estimated free concentration ([4]; 250 mg cohort) was 131 nM. For the same compound, the “MMP-2 transcript level, percent of controls (mean±SEM)” value (MMP-2) was 24±4.1%, the “peak concentration of total genistein” value [5] was 4.3 to 16.3 nM and the “level of total p38 MAP kinase protein” value (p38 MAP kinase) was “total amount of p38 MAP kinase increased”. The “phosphorylation of p38 MAP kinase” value (p38 MAP kinase) was “decreasing phosphorylation of p38 MAP kinase; also recorded: decreased its phosphorylation”, the “gene array expression level, mean (SE)” value ([6]; MALATI, genistein-treated subjects) was 8.22 (0.87) and the “gene array expression level, mean (SE)” value ([6]; brain acid-soluble protein 1, genistein-treated subjects) was 13.3 (0.34). The “gene array expression level, mean (SE)” value ([6]; heat shock protein 90, genistein-treated subjects) was 8.51 (0.5), the “gene array expression level, mean (SE)” value ([6]; heparin cofactor II, genistein-treated subjects) was 2.19 (0.21) and the “gene array expression level, mean (SE)” value ([6]; prostate acid phosphatase, genistein-treated subjects) was 6.85 (0.49). The “gene array expression level, mean (SE)” value ([6]; sorbitol dehydrogenase, genistein-treated subjects) was 5.33 (0.59), the tumor volume (human PC3-M PCa cells; 0, 100, 250 mg genistein/kg chow) was “but not tumor volume” and the weight of mice (human PC3-M PCa cells; between dosing cohorts) was “no difference in the weight of mice between cohorts”. The “TGFβ stimulated phosphorylation of MEK4” value (MEK4) was “does not block TGF-β stimulated phosphorylation of MEK4 itself; also recorded: does not block such phosphorylation”.
